pIC50, pKi: −log10 of the molar value. Entries after “also recorded” stand apart in the source; their conditions may differ. Structures can show the parent of a compound that is named as a salt. Where two headings read alike, the source gives them in different places.
Columns and labels:
variety of cell types = settings: cited from earlier work
[1] = cited from earlier work
carcinoma cell lines [2] = assay: Correlation of EMT signatures with CTD^2 compound AUCs; settings: CTD^2 drug testing cohort
Description: (§1) FIG. 2A-2B—Investigation of the EMT signature and drug sensitivity data. FIG. 2A illustrates the top and bottom correlations between the PRISM compound AUCs (measure of drug sensitivity with a higher value indicating resistance) across three independent EMT down (FIG. 2A) and up (FIG. 2A continued) signatures (Byers, Groger, and Taube). FIG. 2B illustrates the top and bottom correlations between the CTD^2 drug testing cohort compound AUCs with the down (FIG. 2B) and up (FIG. 2B continued) EMT signatures (Byers, Groger, and Taube).
(§2) Applicants analyzed correlations between the EMT signatures and drug sensitivities (FIG. 2).
(§3) Data Curation. All analyses were performed using publicly available data downloaded from the Dependency Map web portal, corresponding to the 22Q2 release. Drug testing data was from the 19Q4 release of PRISM and the most recent release (2015) of CTD ([…]). EMT gene sets were taken from the supplementals of the Byers (2013), Groger (2012), and Taube (2010) EMT related publications. Gene sets were broken down into up (mesenchymal) and down (epithelial) sub-gene sets. If up or down is not labeled in a figure, the composite gene set (union of the up and down lists) was used for scoring. […]
(§4) Computational Methods. […] EMT scores were generated using the GSVA package (v1.38.2) and Pearson correlations were calculated using the base cor function. […]

[3] = test system: tumor cells having a mesenchymal state; assay: EMT signature and drug sensitivity data (PRISM and CTD^2, FIG. 2); settings: mesenchymal vs epithelial state
Experimental: Data Curation. All analyses were performed using publicly available data downloaded from the Dependency Map web portal, corresponding to the 22Q2 release. Drug testing data was from the 19Q4 release of PRISM and the most recent release (2015) of CTD (Gröger, C. J., et al., 2012). EMT gene sets were taken from the supplementals of the Byers (2013), Groger (2012), and Taube (2010) EMT related publications. Gene sets were broken down into up (mesenchymal) and down (epithelial) sub-gene sets. If up or down is not labeled in a figure, the composite gene set (union of the up and down lists) was used for scoring. Only carcinoma coded cell lines were used in analyses. These carcinoma lines were then subset further, when indicated, based on KRAS mutation or pancreas lineage.
Computational Methods. Analyses were performed using the statistical programming language R (v4.0.3, macOS 12.5.1, platform: x86_64-apple-darwin17.0 (64-bit)). EMT scores were generated using the GSVA package (v1.38.2) and Pearson correlations were calculated using the base cor function. All plots were generated using ggplot2 (v3.3.6). Data manipulation was performed using the dplyr (v1.0.8) and reshape2 (v.1.4.4) packages.

[4] = test system: various cancer cell lines; settings: read-out: IC50, apoptosis induction; cited from earlier work
normal human fibroblasts = settings: read-out: IC50, apoptosis induction; cited from earlier work
PAR2 = PAR2 (Homo sapiens, UniProt P55085); settings: cited from earlier work
platelet aggregation = settings: cited from earlier work
[5] = target: proteinase-activated receptor 1 (PAR1) (Homo sapiens, UniProt P25116); settings: read-out: IC50, blocking binding of haTRAP; cited from earlier work
PAR4 = PAR4 (Homo sapiens, UniProt Q96RI0); settings: cited from earlier work
anandamide levels = settings: rat cerebellum; cited from earlier work
anandamide uptake = settings: cited from earlier work
carcinoma cell lines [6] = assay: Correlation of EMT signatures with PRISM compound AUCs; settings: PRISM drug testing cohort
Description: as §1, §2, §3, §4

[7] = test system: KP4, Panc1, Miapaca2 and 8988T (mesenchymal) vs Panc0403, Panc0504 and 8988S (epithelial) cancer cell lines; assay: Cell growth by cell-titer-glo assay, mesenchymal vs epithelial cancer cell lines; format: cell-based; settings: FIG. 8
Experimental: Validation studies were performed for two mesenchymal selective dependencies.

SV40 promoter = settings: cited from earlier work
Survivin promoter = settings: HeLa-SURP-luc and CHO-SV40-luc cells; read-out: IC50, inhibition of Survivin promoter activity; cited from earlier work
neutrophil chemotaxis = settings: in vitro; read-out: IC50, neutrophil chemotaxis in response to IL-8; cited from earlier work
neutrophil margination = settings: in vivo; read-out: IC50, neutrophil margination induced by IL-8; cited from earlier work
[8] = target: sodium/D-glucose cotransporter; settings: cited from earlier work
MCT1 = MCT1 (Homo sapiens, UniProt P53985); settings: cited from earlier work
MCT2 = MCT2 (Homo sapiens, UniProt O60669); settings: cited from earlier work
Glut1 = Glut1 (Homo sapiens, UniProt P11166); settings: cited from earlier work
Glut1, sequence (P11166 whole entry, species assumed): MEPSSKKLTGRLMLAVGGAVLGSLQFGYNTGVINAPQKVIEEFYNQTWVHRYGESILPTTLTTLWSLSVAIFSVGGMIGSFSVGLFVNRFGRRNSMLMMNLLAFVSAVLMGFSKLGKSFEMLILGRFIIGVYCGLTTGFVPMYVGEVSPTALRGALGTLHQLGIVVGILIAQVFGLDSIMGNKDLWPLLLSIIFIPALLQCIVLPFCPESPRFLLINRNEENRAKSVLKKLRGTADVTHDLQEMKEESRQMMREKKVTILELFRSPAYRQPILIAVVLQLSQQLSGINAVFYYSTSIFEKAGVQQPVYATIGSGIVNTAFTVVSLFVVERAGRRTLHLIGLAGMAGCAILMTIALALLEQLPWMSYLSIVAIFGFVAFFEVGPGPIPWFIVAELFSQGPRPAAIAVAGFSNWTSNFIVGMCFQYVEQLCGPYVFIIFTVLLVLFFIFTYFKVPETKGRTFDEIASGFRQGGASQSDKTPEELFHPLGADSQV

proteinase-activated receptor 1 (PAR1), sequence (P25116 22-425, species assumed): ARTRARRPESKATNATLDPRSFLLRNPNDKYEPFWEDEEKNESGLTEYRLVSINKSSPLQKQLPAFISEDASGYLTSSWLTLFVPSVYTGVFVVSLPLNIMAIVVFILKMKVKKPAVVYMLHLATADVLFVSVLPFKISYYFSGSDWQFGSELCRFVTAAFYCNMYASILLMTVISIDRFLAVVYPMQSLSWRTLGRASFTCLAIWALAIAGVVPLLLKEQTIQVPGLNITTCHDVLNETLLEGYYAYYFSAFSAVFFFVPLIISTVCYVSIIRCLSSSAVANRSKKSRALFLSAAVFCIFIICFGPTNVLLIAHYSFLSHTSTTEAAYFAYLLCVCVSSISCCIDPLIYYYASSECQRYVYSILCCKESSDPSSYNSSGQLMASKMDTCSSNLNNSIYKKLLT
PAR4, sequence (Q96RI0 18-385): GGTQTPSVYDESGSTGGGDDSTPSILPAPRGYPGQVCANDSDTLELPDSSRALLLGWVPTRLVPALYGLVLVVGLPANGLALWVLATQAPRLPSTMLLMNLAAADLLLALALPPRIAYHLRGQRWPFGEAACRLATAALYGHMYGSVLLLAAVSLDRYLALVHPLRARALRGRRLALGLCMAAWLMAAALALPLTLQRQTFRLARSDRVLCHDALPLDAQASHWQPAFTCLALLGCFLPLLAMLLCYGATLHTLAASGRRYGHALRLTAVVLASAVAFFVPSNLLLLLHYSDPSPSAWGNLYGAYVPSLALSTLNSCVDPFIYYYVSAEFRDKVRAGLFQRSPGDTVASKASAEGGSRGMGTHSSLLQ
MCT1, sequence (P53985 whole entry): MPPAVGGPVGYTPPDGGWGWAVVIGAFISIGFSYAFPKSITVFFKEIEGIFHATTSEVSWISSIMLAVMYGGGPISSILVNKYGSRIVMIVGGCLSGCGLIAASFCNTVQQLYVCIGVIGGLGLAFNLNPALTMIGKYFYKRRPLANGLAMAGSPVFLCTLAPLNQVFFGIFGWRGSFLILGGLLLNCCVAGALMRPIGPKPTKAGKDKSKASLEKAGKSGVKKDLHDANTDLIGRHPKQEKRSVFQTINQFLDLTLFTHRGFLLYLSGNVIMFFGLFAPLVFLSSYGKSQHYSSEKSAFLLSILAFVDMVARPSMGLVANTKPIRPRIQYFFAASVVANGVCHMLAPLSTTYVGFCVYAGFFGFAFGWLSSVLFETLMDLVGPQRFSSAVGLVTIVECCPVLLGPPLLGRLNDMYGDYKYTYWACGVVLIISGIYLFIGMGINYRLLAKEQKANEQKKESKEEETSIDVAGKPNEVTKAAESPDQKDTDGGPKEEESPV
MCT2, sequence (O60669 whole entry, species assumed): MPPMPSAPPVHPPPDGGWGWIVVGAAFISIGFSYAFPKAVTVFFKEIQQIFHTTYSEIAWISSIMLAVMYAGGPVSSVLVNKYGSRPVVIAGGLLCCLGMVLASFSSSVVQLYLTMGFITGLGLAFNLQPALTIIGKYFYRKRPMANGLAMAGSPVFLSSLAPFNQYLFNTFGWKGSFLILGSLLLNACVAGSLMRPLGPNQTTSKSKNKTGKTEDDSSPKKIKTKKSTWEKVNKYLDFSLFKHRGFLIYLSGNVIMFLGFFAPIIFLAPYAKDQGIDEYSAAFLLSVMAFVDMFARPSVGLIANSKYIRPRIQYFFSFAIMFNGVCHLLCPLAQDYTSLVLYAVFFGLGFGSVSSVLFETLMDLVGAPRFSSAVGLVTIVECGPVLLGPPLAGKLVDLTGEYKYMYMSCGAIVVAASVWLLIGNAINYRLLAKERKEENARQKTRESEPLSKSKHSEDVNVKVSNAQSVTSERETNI
PAR2, sequence (P55085 26-397): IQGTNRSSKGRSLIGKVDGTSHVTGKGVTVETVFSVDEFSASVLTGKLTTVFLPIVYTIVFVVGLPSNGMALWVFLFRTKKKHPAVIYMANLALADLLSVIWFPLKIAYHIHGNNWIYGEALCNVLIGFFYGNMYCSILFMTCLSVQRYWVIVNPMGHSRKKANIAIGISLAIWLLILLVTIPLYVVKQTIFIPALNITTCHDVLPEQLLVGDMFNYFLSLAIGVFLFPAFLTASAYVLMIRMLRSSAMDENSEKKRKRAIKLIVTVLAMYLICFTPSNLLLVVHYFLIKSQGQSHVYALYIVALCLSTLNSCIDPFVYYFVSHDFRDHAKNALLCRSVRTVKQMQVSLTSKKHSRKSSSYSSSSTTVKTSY

CC[C@H]1/C=C/C=C/C[C@@H](C)[C@H](O)[C@@](C)(O)C(=O)[C@@H](C)[C@H](O)[C@@H](C)C(=O)[C@@H](C)[C@H](O)[C@@H](C)/C=C/C(=O)O[C@@H]2[C@H](C)[C@H](CC1)O[C@]1(CC[C@H](C)[C@H](C[C@@H](C)O)O1)[C@H]2C [Oligomycin A, (1R,4E,5′S,6S,6′S,7R,8S,10R,11R,12S,14R,15S,16R,18E,20E,22R,25S,27R,28S,29R)-22-ethyl-7,11,14,15-tetrahydroxy-6′-[(2R)-2-hydroxypropyl]-5′,6,8,10,12,14,16,28,29-nonamethyl-3′,4′,5′,6′-tetrahydro-3H,9H,13H-spiro[2,26-dioxabicyclo[23.3.1]nonacosa-4,18,20-triene-27,2′-pyran]-3,9,13-trione]
GI50 (variety of cell types): 270 nM
solubility in water and other biocompatible solvents [1]: poor solubility

O=C(Nc1ccc([N+](=O)[O-])cc1Cl)c1cc(Cl)ccc1O [niclosamide, 5-chloro-N-(2-chloro-4-nitrophenyl)-2-hydroxybenzamide]
correlation of compound AUC with composite EMT signatures (carcinoma cell lines [2]): top positively correlated compound
selective efficacy / lethality in the mesenchymal cell state [3]: selective efficacy in mesenchymal cancer cells

OCCNCCCOc1cccc(Cl)c1Cl [2,3-DCPE, 2-[3-(2,3-dichlorophenoxy)propylamino]ethanol;hydrochloride]
pIC50 [4]: 5.57 to 6.05
pIC50 (normal human fibroblasts): 4.90

CC(C)c1ccc(Cn2ccc3c4c(N)nc(NC5CC5)nc4ccc32)cc1 [SCH 79797, 3-N-cyclopropyl-7-[(4-propan-2-ylphenyl)methyl]pyrrolo[3,2-f]quinazoline-1,3-diamine]
activity against PAR2 (PAR2): no activity
pIC50 (platelet aggregation; inducer haTRAP, read-out: IC50, platelet aggregation induced by haTRAP): 6.52
pIC50 (platelet aggregation; inducer α-thrombin, read-out: IC50, platelet aggregation induced by α-thrombin): 5.52
pIC50 [5]: 7.15
activity against PAR4 (PAR4): no activity

CN(C)C(=O)n1nnnc1Cc1ccc(-c2ccccc2)cc1 [LY2183240, N,N-dimethyl-5-[(4-biphenyl)methyl]tetrazole-1-carboxamide]
ED50, increase of anandamide levels (anandamide levels): 1.37 mg/kg
pIC50 (anandamide uptake; read-out: IC50, anandamide uptake): 3.57
pKi (anandamide uptake; read-out: Ki, anandamide uptake): 3.27

COCCn1c2c([n+](Cc3cnccn3)c1C)C(=O)c1ccccc1C2=O [YM-155, 1-(2-methoxyethyl)-2-methyl-3-(pyrazin-2-ylmethyl)benzo[f]benzimidazol-3-ium-4,9-dione;bromide]
correlation of compound AUC with composite EMT signatures (carcinoma cell lines [6]): top positively correlated compound
selectivity of growth inhibition, mesenchymal vs epithelial cancer cells [7]: selective for inhibiting growth of mesenchymal cancer cells; also recorded: selectively targeted cancer cells that have undergone an epithelial-to-mesenchymal transition
inhibition of SV40 promoter activity (SV40 promoter): does not significantly inhibit
selective efficacy / lethality in the mesenchymal cell state [3]: potent selectivity against the mesenchymal cell state
pIC50 (Survivin promoter): 9.27

O=C(Nc1ccc([N+](=O)[O-])cc1O)Nc1ccccc1Br [SB 225002, 1-(2-bromophenyl)-3-(2-hydroxy-4-nitrophenyl)urea]
pIC50 (neutrophil chemotaxis): 7.70
pIC50 (neutrophil margination): 7.52

O=C(CCc1ccc(O)cc1)c1c(O)cc(O)cc1O [Phloretin, 3-(4-hydroxyphenyl)-1-(2,4,6-trihydroxyphenyl)propan-1-one]
pKi [8]: 4.07
pIC50 (MCT1): 4.55
pIC50 (MCT2): 4.85

CC(C)(C)c1ccc(S(=O)(=O)NCc2ccc(C(=O)Nc3cccnc3)cc2)cc1 [STF-31, 4-[[[[4-(1,1-dimethylethyl)phenyl]sulfonyl]amino]methyl]-N-3-pyridinyl-benzamide]
pIC50 (Glut1): ~6.00
